{"source": "patent US6528528B2", "about": "(Warner-Lambert Company, priority 1997, dated 2003)", "data": [{"target": "T1, rabbit reticulocyte 15-LO (Oryctolagus cuniculus, UniProt P12530)", "T1 construct": "Fifteen-lipoxygenase was obtained from phenylhydrazine-treated rabbits and purified per the method of Rapoport; from tissue; host or cells: reticulocytes of phenylhydrazine-treated rabbits", "T1 sequence (P12530 1-663)": "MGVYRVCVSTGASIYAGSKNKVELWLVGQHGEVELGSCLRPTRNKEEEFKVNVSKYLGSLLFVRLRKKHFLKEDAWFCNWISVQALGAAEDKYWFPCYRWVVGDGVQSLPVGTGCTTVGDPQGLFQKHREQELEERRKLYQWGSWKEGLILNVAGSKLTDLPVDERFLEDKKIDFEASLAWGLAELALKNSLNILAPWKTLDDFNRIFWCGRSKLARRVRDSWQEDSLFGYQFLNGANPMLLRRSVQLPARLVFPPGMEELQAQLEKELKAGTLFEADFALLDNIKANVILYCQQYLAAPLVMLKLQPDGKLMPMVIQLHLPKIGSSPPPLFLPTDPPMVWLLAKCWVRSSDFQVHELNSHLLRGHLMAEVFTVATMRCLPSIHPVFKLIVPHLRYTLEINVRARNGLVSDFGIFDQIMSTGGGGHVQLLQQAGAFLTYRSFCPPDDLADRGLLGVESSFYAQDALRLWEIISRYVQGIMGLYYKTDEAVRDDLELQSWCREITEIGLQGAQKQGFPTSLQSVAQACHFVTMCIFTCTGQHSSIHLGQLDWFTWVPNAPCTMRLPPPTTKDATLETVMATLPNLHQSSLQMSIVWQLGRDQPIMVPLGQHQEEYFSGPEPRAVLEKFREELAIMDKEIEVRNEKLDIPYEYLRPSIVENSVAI", "assay": "Rabbit Reticulocyte 15-LO Assay (h15LO)", "type": "biochemical", "settings": "Table 1; 2U rabbit reticulocyte 15-LO, 174 μM linoleic acid, 15 minutes at 4° C.", "protocol": "(§1) Rabbit Reticulocyte 15-LO Assay (h15LO)\n(§2) The present 15-LO assay takes advantage of the ability of 15-LO to oxidize the fatty acid linoleic acid to the hydroperoxy fatty acid 13-(S)HPODE, resulting in the formation of a conjugated diene. The 15-LO inhibitors are incubated with 15-LO enzyme in the presence of linoleic acid substrate. The initial reaction is compared to an uninhibited (maximal) reaction to yield % inhibition. […] This prevents artificial nonenzyme lipid peroxidation and product breakdown in the sample. 13-HPODE is quantitated by comparing peak areas of individual samples with those from a standard curve generated using authentic 13-HODE. This assay is performed using 2U of rabbit reticulocyte 15-LO in the presence of 174 μM linoleic acid. The reaction is incubated for 15 minutes at 4° C. The total reaction volume is 100 μL in PBS containing 0.2% Na cholate.\n(§3) Fifteen-lipoxygenase was obtained from phenylhydrazine-treated rabbits and purified per the method of Rapoport (Rapoport S. M., Schewe T., Wiesner R., et al. The lipoxygenase of reticulocytes. Purification, characterization, and biological dynamics of the lipoxygenase; its identity with the respiratory inhibitors of the reticulocyte. European Journal of Biochemistry, 1979;96:545-561). The following chemicals were purchased and used as received: linoleic acid (NUJCheck Prep), 13-HPODE (Biomol Research Labs), sodium cholate (Sigma), trimethyl phosphite (Fluka Chemicals).", "units": {"IC50": "nM"}, "values": [{"smiles": "COc1ccc(NC(=O)c2ccccc2)cc1N", "note": "[Example 21, N-(3-Amino-4-methoxyphenyl)-benzamide]", "IC50": 2130}]}, {"target": "T1, rabbit reticulocyte 15-LO", "assay": "Rabbit Reticulocyte 15-LO Assay (h15LO)", "type": "biochemical", "settings": "Table 2; 2U rabbit reticulocyte 15-LO, 174 μM linoleic acid, 15 minutes at 4° C.", "protocol": "as §1, §2, §3", "units": {"IC50": "nM"}, "values": [{"smiles": "COc1ccc(C(=O)Nc2ccccc2)cc1NCc1ccc(O)cc1", "note": "[Example 272, 3-(4-Hydroxy-benzylamino)-4-methoxy-N-phenyl-benzamide]", "IC50": 304}, {"smiles": "COc1ccc(C(=O)Nc2ccc(F)c(F)c2)cc1NCc1cccc(F)c1", "note": "[Example 212, 3-(3-Fluoro-benzylamino)-4-methoxy-N-(3,4-difluoro-phenyl)-benzamide]", "IC50": 69}, {"smiles": "COc1ccc(C(=O)Nc2ccccc2)cc1NCc1cccc2ccccc12", "note": "[Example 217, 4-Methoxy-3-[(naphthalen-1-ylmethyl)-amino]-N-phenyl-benzamide]", "IC50": 129}, {"smiles": "COc1ccc(C(=O)Nc2ccccc2)cc1NCc1cc(F)cc(F)c1", "note": "[Example 267, 4-Methoxy-3-(3,5-difluoro-benzylamino)-N-phenyl-benzamide]", "IC50": 198}, {"smiles": "COc1ccc(C(=O)Nc2ccccc2)cc1NCc1ccc2c(c1)OCCO2", "note": "[Example 271]", "IC50": 302}, {"smiles": "COc1ccc(NC(=O)c2ccc(F)c(F)c2)cc1N", "note": "[Example 150, 3,4-Difluoro-N-(3-amino-4-methoxy-phenyl)-benzamide]", "IC50": 205}, {"smiles": "COc1ccc(C(=O)OCc2ccccc2)cc1NC(=S)Nc1cc(Cl)cc(Cl)c1", "note": "[Example 176, 3-[3-(3,5-Dichloro-phenyl)-thioureido]-4-methoxy-benzoic Acid Benzyl Ester]", "IC50": 800}, {"smiles": "COc1ccc(C(=O)Nc2ccc(F)c(F)c2)cc1NS(=O)(=O)c1cc(Cl)cc(Cl)c1", "note": "[Example 116, 3-(3,5-Dichloro-benzenesulfonylamino)-4-methoxy-N-(3,4-difluorophenyl)-benzamide]", "IC50": 20}, {"smiles": "COc1ccc(C(=O)Nc2ccccc2)cc1NCc1cccc(O)c1", "note": "[Example 213, 3-(3-Hydroxy-benzylamino)-4-methoxy-N-phenyl-benzamide]", "IC50": 79}, {"smiles": "COc1ccc(C(=O)Nc2ccc(Cl)c(Cl)c2)cc1Nc1cccc(C(F)(F)F)c1", "note": "[Example 47, 4-Methoxy-3-(3-trifluoromethyl-phenylamino)-N-(3,4-dichlorophenyl)-benzamide]", "IC50": 100}, {"smiles": "O=C(Nc1ccccc1)c1ccc(O)c(Nc2ccccc2)c1", "note": "[Example 145, 4-Hydroxy-3-phenylamino-N-phenyl-benzamide]", "IC50": 180}, {"smiles": "COc1ccc(NC(=O)c2ccc(Cl)c(Cl)c2)cc1Nc1cccc(C(F)(F)F)c1", "note": "[Example 160, 3,4-Dichloro-N-[4-methoxy-3-(3-trifluoromethyl-phenylamino)-phenyl]-benzamide]", "IC50": 119}, {"smiles": "COc1ccc(C(=O)Nc2ccccc2)cc1Nc1ccc(F)cc1", "note": "[Example 153, 3-(4-Fluoro-phenylamino)-4-methoxy-N-phenyl-benzamide]", "IC50": 54}, {"smiles": "COc1ccc(C(=O)Nc2ccccc2)cc1CNC(=S)Nc1cc(Cl)cc(Cl)c1", "note": "[Example 247, 3-[3-(3,5-Dichloro-phenyl)-thioureidomethyl]-4-methoxy-N-phenyl-benzamide]", "IC50": 40}, {"smiles": "O=C(Nc1ccccc1)c1cccc(Nc2cc(Cl)cc(Cl)c2)c1", "note": "[Example 26, 3-(3,5-Dichloro-phenylamino)-N-phenyl-benzamide]", "IC50": 1600}]}, {"target": "T1, rabbit reticulocyte 15-LO", "assay": "Rabbit Reticulocyte 15-LO Assay (h15LO)", "type": "biochemical", "settings": "Table 2; concentration not given", "protocol": "as §1, §2, §3", "units": {"h15LO, value given as bare %": "%"}, "values": [{"smiles": "O=C(Nc1ccccc1)c1ccc(OC(F)(F)F)c(Nc2cccc(C(F)(F)F)c2)c1", "note": "[Example 158, 4-Trifluoromethoxy-3-(3-trifluoromethyl-phenylamino)-N-phenyl-benzamide]", "h15LO, value given as bare %": 48.28}, {"smiles": "COc1ccc(C(=O)Nc2ccccc2)cc1NCc1ccc(C#N)cc1", "note": "[Example 233, 3-(4-Cyano-benzylamino)-4-methoxy-N-phenyl-benzamide]", "h15LO, value given as bare %": 73.46}, {"smiles": "COc1ccc(C(=O)Nc2ccc(Cl)c(Cl)c2)cc1NCc1cccc(F)c1", "note": "[Example 240, 3-(3-Fluoro-benzylamino)-4-methoxy-N-(3,4-dichloro-phenyl)-benzamide]", "h15LO, value given as bare %": 58.09}, {"smiles": "Cc1ccc(C(=O)Nc2ccccc2)cc1NC(=O)c1cc(Cl)cc(Cl)c1", "note": "[Example 255, 3-[(3,5-Dichlorobenzoyl)amino]-4-methyl-N-phenyl-benzamide]", "h15LO, value given as bare %": 47}, {"smiles": "COc1ccc(C(=O)Nc2ccc(F)cc2)cc1Nc1ccc(F)cc1", "note": "[Example 155, 3-(4-Fluoro-phenylamino)-4-methoxy-N-(4-fluoro-phenyl)-benzamide]", "h15LO, value given as bare %": 94.44}, {"smiles": "CCOC(=O)c1cccc(NC(=O)c2ccc(OC)c(Nc3cccc(C(F)(F)F)c3)c2)c1", "note": "[Example 157, 3-[4-Methoxy-3-(3-trifluoromethyl-phenylamino)-benzoylamino]-benzoic Acid Ethyl Ester]", "h15LO, value given as bare %": 78.83}, {"smiles": "COc1ccc(C(=O)Nc2ccccc2)cc1N(S(=O)(=O)c1cc(Cl)cc(Cl)c1)S(=O)(=O)c1cc(Cl)cc(Cl)c1", "note": "[Example 251, 3-[Bis[(3,5-dichlorophenyl)sulfonyl]amino]-4-methoxy-N-phenyl-benzamide]", "h15LO, value given as bare %": 62.01}, {"smiles": "COc1ccc(NC(=O)c2ccc(F)c(F)c2)cc1NS(=O)(=O)CCl", "note": "[Example 201, 3,4-Difluoro-N-[4-methoxy-3-(chloromethyl-sulfonylamino)-phenyl]. benzamide]", "h15LO, value given as bare %": 93.97}, {"smiles": "COC(=O)c1cccc(NC(=O)c2ccc(OC)c(Nc3cccc(C(F)(F)F)c3)c2)c1", "note": "[Example 156, 3-[4-Methoxy-3-(3-trifluoromethyl-phenylamino)-benzoylamino]-benzoic Acid Methyl Ester]", "h15LO, value given as bare %": 90.33}, {"smiles": "COc1ccc(C(=O)Nc2ccc(F)c(F)c2)cc1NC(=S)Nc1ccc(S(=O)(=O)[O-])cc1.[Na+]", "note": "[Example 165, 4-{3-[5-(3,4-Difluoro-phenylcarbamoyl)-2-methoxy-phenyl]-thioureido}-benzenesulfonic Acid, Sodium Salt]", "h15LO, value given as bare %": 98.51}, {"smiles": "COc1ccc(C(=O)Nc2ccc(F)c(F)c2)cc1NS(=O)(=O)c1ccc([N+](=O)[O-])cc1", "note": "[Example 186, 4-Methoxy-3-(4-nitro-benzenesulfonylamino)-N-(3,4-difluoro-phenyl)-benzamide]", "h15LO, value given as bare %": 99.35}, {"smiles": "COc1ccc(C(=O)Nc2ccccc2)cc1NS(=O)(=O)c1ccc([N+](=O)[O-])cc1", "note": "[Example 188, 4-Methoxy-3-(4-nitro-benzenesulfonylamino)-N-phenyl-benzamide]", "h15LO, value given as bare %": 97.24}, {"smiles": "COc1ccc(C(=O)Nc2ccc(F)cc2)cc1NS(=O)(=O)c1cccc([N+](=O)[O-])c1", "note": "[Example 190, 4-Methoxy-3-(3-nitro-benzenesulfonylamino)-N-(4-fluoro-phenyl)-benzamide]", "h15LO, value given as bare %": 97.05}, {"smiles": "COc1ccc(C(=O)Nc2ccccc2)cc1NCc1ccc([N+](=O)[O-])c(O)c1", "note": "[Example 228, 3-(3-Hydroxy-4-nitro-benzylamino)-4-methoxy-N-phenyl-benzamide]", "h15LO, value given as bare %": 92.92}, {"smiles": "COc1ccc(C(=O)Nc2ccc(F)c(F)c2)cc1NCc1ccc(C(=O)O)cc1", "note": "[Example 234, 4-{[5-(3,4-Difluoro-phenylcarbamoyl)-2-methoxy-phenylalino]-methyl}-benzoic Acid]", "h15LO, value given as bare %": 71.56}, {"smiles": "COc1ccc(C(=O)Nc2ccccc2)cc1NS(=O)(=O)c1ccc(C#N)cc1", "note": "[Example 192, 3-(4-Cyano-benzenesulfonylamino)-4-methoxy-N -phenyl-benzamide]", "h15LO, value given as bare %": 95.56}, {"smiles": "COc1ccc(NC(=O)Nc2ccc(Cl)c(Cl)c2)cc1NS(=O)(=O)c1cccs1", "note": "[Example 207, Thiophene-2-sulfonic acid {5-[3-(3,4-dichloro-phenyl)-ureido]-2-methoxy-phenyl}-amide]", "h15LO, value given as bare %": 41.59}, {"smiles": "COc1ccc(NC(=O)c2ccc(F)c(F)c2)cc1NCc1cccc(O)c1", "note": "[Example 245, 3,4-Difluoro-N-[3-(3-hydroxy-benzylamino)-4-methoxy-phenyl]-benzamide]", "h15LO, value given as bare %": 98.02}, {"smiles": "CCCCCCCCCCCCS(=O)(=O)Nc1cc(NC(=O)c2ccc(F)c(F)c2)ccc1OC", "note": "[Example 200, 3,4-Difluoro-N-[4-methoxy-3-(1-dodecane-sulfonylamino)-phenyl]-benzamide]", "h15LO, value given as bare %": 96.92}]}]}
